{
  "source": "patent US6469062B2",
  "about": "“Use of 15-keto-prostaglandins in promoting bile secretion” (Sucampo A.G., priority 2000, dated 2002)",
  "key": {"dogs and cats": {"tested_on": "dogs and cats", "details": "cited from earlier work"}, "[1]": {"tested_on": "porcine of which liver was replaced by transplantation", "details": "intraportal administration; cited from earlier work"}, "implanted liver": {"tested_on": "implanted liver", "details": "added to liver preservation solution; rat liver transplantation model; cited from earlier work"}, "normal rats": {"tested_on": "normal rats", "assay": "Test Example 1: bile flow in normal rats after oral administration", "format": "in vivo, rat", "details": "100 μg/kg orally 3 times a day for 7 days; bile collected on day 8, 1 to 2 hours after cannulation; vs vehicle", "protocol": "Male Wister rats were used. 100 μg/kg of test compound 1 (13,14-dihydro-15-keto-16, 16-difluoro-18(S)-methyl-prostaglandin E1) was administered orally to the test group animals (n=8) 3 times a day for 7days. To the control group animals (n=7), the same volume of the vehicle, i.e. 0.01% polysorbate 80, 0.5% ethanol in distilled water was administered. At the next day after the final administration (day 8), the common bile duct of the respective rat was cannulated under ether anesthesia and the rat was placed in ball man gauge for 1 hour to recover from anesthesia. The bile discharged over one hour time period, i.e. from 1 to 2 hours of the cannulation, was collected and determined bile flow."}, "perfused rat liver": {"tested_on": "perfused rat liver", "assay": "Test Example 2: bile flow of isolated perfused rat liver", "protocol": "Male Wister rats were used. Each rat was cannulated for collection of bile under pentobarbital sodium anesthesia. A catheter was inserted and fixed in the portal vein. Krebs-Ringer solution saturated with 95% O2 and 5% CO2 (pH 7.4, 37° C.) was infused via the catheter at a constant flow rate of 4.0 ml/min/g liver weight by means of peristaltic pump to perfuse the liver. The liver was removed under perfusion. In case where the bile secretion was necessary to maintain being the physiological level, the liver was perfused with Krebs-Ringer solution supplemented with sodium taurocolate (30 μmol/l). For the test group animals, the test compound 1 was added to the Krebs-Ringer solution. Bile of the each animals including test and control groups was collected in every 5 minutes."}, "[2]": {"tested_on": "anoxia/re-oxygenation perfused rat liver", "assay": "Test Example 3: bile flow recovery of anoxia/re-oxygenation perfused rat liver", "details": "10 μM added at re-oxygenation after 20 minutes of anoxia; vs vehicle", "protocol": "Isolated perfused liver sample was prepared by the same manner as described in the test example 2. Each livers of test and control groups was perfused with Krebs-Ringer solution saturated with 95% N2 and 5% CO2 for 20 minutes to expose the liver oxygen-free condition. After that, Krebs-Ringer solution saturated with 95% O2 and 5% CO2 was perfused to re-oxygenize the liver. At the re-oxygenization step, 10 μM of the test compound 1 was added to the Krebs-Ringer solution for the test group."}, "rat isolated liver [3]": {"tested_on": "rat isolated liver", "assay": "Test Example 4: bile flow of rat isolated liver, compound added to preservation solution", "details": "10 μM added to U-W preservation solution, 4° C., 16 hours storage; 40 minutes reperfusion", "description": "Male Wister Rats were anesthetized with pentobarital sodium and hepatic-portal region was exposed by abdominal midline incision. The common bile duct was cannulated and the portal stem was inserted with a 19 gauge surflo® needle equipped with a three way stopcock. […] Treitz' ligament, the ligament around the liver, and diaphragm were cut and the liver was removed to the outside of the body and subjected to extracoporeal perfusion. The liver was subjected to a fifteen minutes of pre-perfusion until its oxygen consumption achieved to constant and then, the perfusate was exchanged with University of Wisconsin solution (U-W solution) at 4° C. Immediately after finish of the exchange, the liver connected with the three-way stopcock was removed from the perfusion cycle and the inlet was clamped. Then the liver was putted into the U-W solution at the same temperature and stored for 16 hours. […] During the reperfusion period, bile flow was determined every 5 minutes.\nIn the above perfusion protocol, 10 μM of test compound 1 or test compound 2 (13,14-dihydro-15-keto-16,16-difluoro-17(R)-methyl-prostaglandin E1) were added to the U-W solution to determine the effects of these drugs on recovery of bile flow."}, "rat isolated liver [4]": {"tested_on": "rat isolated liver", "assay": "Test Example 5: bile flow of cold preserved rat isolated liver, compound added to rinse solution", "details": "added to Krebs-Ringer rinse solution perfused for 40 minutes after 16-hour cold storage", "protocol": "The perfusion protocol of the Test Example 4 was repeated except for the test compound 1 and the test compound 2 were added to the Krebs-Ringer solution, i.e. the rinse solution perfused for 40 minute's to determine the recovery of the bile flow."}},
  "data": [
    {"smiles": "CCCCC[C@H](O)/C=C/[C@H]1C=CC(=O)[C@@H]1CCCCCCC(=O)O", "note": "[PGA1]", "values": [
      {"measurement": "cholagogic effect", "setting": "dogs and cats", "result": "cholagogic effect"}
    ]},
    {"smiles": "CCCCC[C@H](O)/C=C/[C@H]1[C@H](O)CC(=O)[C@@H]1CCCCCCC(=O)O", "note": "[PGE1, prostaglandin E1]", "values": [
      {"measurement": "cholagogic effect", "setting": "dogs and cats", "result": "cholagogic effect"},
      {"measurement": "bile flow", "setting": "[1]", "result": "increased the bile flow"}
    ]},
    {"smiles": "CCCCC[C@H](O)/C=C/[C@H]1[C@H](O)CC(=O)[C@@H]1C/C=C\\CCCC(=O)O", "note": "[PGE2]", "values": [
      {"measurement": "cholagogic effect", "setting": "dogs and cats", "result": "cholagogic effect"}
    ]},
    {"smiles": "CCCCC[C@H](O)/C=C/[C@@H]1[C@@H](C/C=C\\CCCC(=O)O)[C@@H](O)C[C@H]1O", "note": "[PGF2a]", "values": [
      {"measurement": "cholagogic effect", "setting": "dogs and cats", "result": "cholagogic effect"}
    ]},
    {"smiles": "CCCC[C@H](C)C[C@H](O)/C=C/[C@@H]1C2CC(CCCCC(=O)O)=CC2C[C@H]1O", "note": "(stereo partly shown) [TEI-9063]", "values": [
      {"measurement": "bile producing activity of the implanted liver", "setting": "implanted liver", "result": "improved bile producing activity"}
    ]},
    {"smiles": "CCCCC[C@H](O)/C=C/[C@@H]1[C@H]2C/C(=C/CCCC(=O)O)O[C@H]2C[C@H]1O", "note": "[prostacyclin]", "values": [
      {"measurement": "cholagogic effect", "setting": "dogs and cats", "result": "cholagogic effect"}
    ]},
    {"smiles": "CC[C@H](C)CC(F)(F)C(=O)CC[C@H]1[C@H](O)CC(=O)[C@@H]1CCCCCCC(=O)O", "note": "[test compound 1, 13,14-dihydro-15-keto-16,16-difluoro-18(S)-methyl-prostaglandin E1]", "values": [
      {"measurement": "normal rat bile flow", "setting": "normal rats", "result": "significantly increased"},
      {"measurement": "bile flow of the perfused rat liver", "setting": "perfused rat liver; compound added to Krebs-Ringer perfusate", "result": "significantly increased bile flow"},
      {"measurement": "cholagogic effect, dose dependence", "setting": "perfused rat liver; under the presence of bile acid (sodium taurocolate 30 μmol/l)", "result": "dose dependent cholagogic effect"},
      {"measurement": "bile flow, presence (TC(+)) or absence (TC(−)) of bile acid", "setting": "perfused rat liver; with or without bile acid in the perfusate", "result": "increased the bile flow irrespective of the presence or absence of bile acid"},
      {"measurement": "bile flow recovery after anoxia/re-oxygenation", "setting": "[2]", "result": "significantly increased the bile flow"},
      {"measurement": "bile flow at the reperfusion step", "setting": "rat isolated liver [3]", "result": "increased the bile flow at the reperfusion step significantly"},
      {"measurement": "bile flow in reperfusion of cold preserved rat liver", "setting": "rat isolated liver [4]", "result": "significantly increased"}
    ]},
    {"smiles": "CCCC(C)C(F)(F)C(=O)CCC1C(O)CC(=O)C1CCCCCCC(=O)O", "note": "[test compound 2, 13,14-dihydro-15-keto-16,16-difluoro-17(R)-methyl-prostaglandin E1]", "values": [
      {"measurement": "bile flow at the reperfusion step", "setting": "rat isolated liver [3]", "result": "increased the bile flow at the reperfusion step significantly"},
      {"measurement": "bile flow in reperfusion of cold preserved rat liver", "setting": "rat isolated liver [4]", "result": "significantly increased"}
    ]}
  ]
}
